Experimental findings from US10344025B2, “GLS1 inhibitors for treating disease” (Board of Regents, The University of Texas System, priority 2014, dated 2019) are described below.

One test concerns A549 cells. Put plainly: Proliferation Assay (A549 viability, Cell Titer Fluor, 72 hours). Type of test: cell-based. The method, boiled down: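 A549 cells seeded at 1000 cells/well, rested 24 h, then exposed to compound in 0.5% DMSO for 72 h at 37 °C. Viability read by Cell Titer Fluor fluorescence; IC50 from four-parameter logistic fit.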
In test [1] the target is purified recombinant human GAC (GLS1) (Homo sapiens (Human), UniProt O94925). As to the kind of experiment: GLS1 Enzymatic Activity Assay (dual-coupled enzymatic assay, resorufin/Amplex UltraRed readout).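 Note: glutamate from GAC coupled via glutamate oxidase and peroxidase to resorufin, read as fluorescence (ex 530, em 590 nm) kinetically or at 20 min, four-parameter logistic IC50 fit.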 It counts as biochemical.

Read-outs that look alike come from different tables or passages of the source.

purified recombinant human GAC (GLS1), sequence (O94925 other isoform, or with tags, fused parts or gaps): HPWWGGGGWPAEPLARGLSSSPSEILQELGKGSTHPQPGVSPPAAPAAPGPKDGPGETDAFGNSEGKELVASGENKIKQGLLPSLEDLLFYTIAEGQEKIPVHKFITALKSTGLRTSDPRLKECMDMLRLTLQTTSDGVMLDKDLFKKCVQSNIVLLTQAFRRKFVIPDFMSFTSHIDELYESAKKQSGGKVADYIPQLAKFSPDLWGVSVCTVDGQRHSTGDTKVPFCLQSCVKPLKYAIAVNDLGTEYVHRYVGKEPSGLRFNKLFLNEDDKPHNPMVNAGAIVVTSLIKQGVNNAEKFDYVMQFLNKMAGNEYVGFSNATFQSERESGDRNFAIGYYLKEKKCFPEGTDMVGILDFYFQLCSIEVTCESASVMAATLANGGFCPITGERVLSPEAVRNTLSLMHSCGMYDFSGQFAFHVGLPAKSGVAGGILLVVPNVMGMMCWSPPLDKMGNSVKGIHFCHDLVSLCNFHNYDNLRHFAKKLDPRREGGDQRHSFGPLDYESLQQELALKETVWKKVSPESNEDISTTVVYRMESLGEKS

Usually EC50 stands for the concentration needed to bring the measured effect to its halfway point. The low end stands for a more potent agent, the high end for a less potent agent. One may read the IC50 as the point on the concentration scale where inhibition reaches its midpoint. Take `CNC(=O)c1cn(CCCCc2ccc(NC(=O)Cc3cccc(C4=CCN(C(=O)OC(C)(C)C)CC4)c3)nn2)nn1` [Example 212, tert-butyl 4-(3-(2-((6-(4-(4-(methylcarbamoyl)-1H-1,2,3-triazol-1-yl)butyl)pyridazin-3-yl)amino)-2-oxoethyl)phenyl)-3,6-dihydropyridine-1(2H)-carboxylate]: in the test on A549 cells (Homo sapiens, A549, 72 h), the EC50 is less than 100 nM. The IC50 in test [1] was less than 100 nM.
Regarding `CNC(=O)c1cn(CCCCc2ccc(NC(=O)Cc3cccc(C4CCN(C(=O)OC(C)(C)C)CC4)c3)nn2)nn1` [Example 213, tert-butyl 4-(3-(2-((6-(4-(4-(methylcarbamoyl)-1H-1,2,3-triazol-1-yl)butyl)pyridazin-3-yl)amino)-2-oxoethyl)phenyl)piperidine-1-carboxylate], in the test on A549 cells (Homo sapiens, A549, 72 h), the concentration for a half-maximal effect (EC50) was less than 100 nM. The IC50 in test [1] was less than 100 nM.
In the test on A549 cells (Homo sapiens, A549, 72 h), `CNC(=O)c1cn(CCCCc2ccc(NC(=O)CN3CCCCC3=O)nn2)nn1` [Example 214, N-methyl-1-(4-(6-(2-(2-oxopiperidin-1-yl)acetamido)pyridazin-3-yl)butyl)-1H-1,2,3-triazole-4-carboxamide] gave an EC50 of more than 5000 nM. In addition, the IC50 in test [1] is 100 to 500 nM.
`CNC(=O)c1cn(CCCCc2ccc(NC(=O)CN3CCC(c4ccccc4)CC3)nn2)nn1` [Example 215, N-methyl-1-(4-(6-(2-(4-phenylpiperidin-1-yl)acetamido)pyridazin-3-yl)butyl)-1H-1,2,3-triazole-4-carboxamide] gave an EC50 in the test on A549 cells (Homo sapiens, A549, 72 h) of 500 to 5000 nM. Moreover, the IC50 in test [1] was in the range of 100 to 500 nM.
Turning to `CNC(=O)c1nnc(CCCCc2ccc(NC(=O)Cc3cncc(-c4cccc(OC(F)(F)F)c4)c3)nn2)s1` [Example 216, N-methyl-5-(4-(6-(2-(5-(3-(trifluoromethoxy)phenyl)pyridin-3-yl)acetamido)pyridazin-3-yl)butyl)-1,3,4-thiadiazole-2-carboxamide], the EC50 in the test on A549 cells (Homo sapiens, A549, 72 h) was less than 100 nM. For the same molecule, in test [1], the IC50 is less than 100 nM.
In the test with A549 cells (Homo sapiens, A549, 72 h), `CNC(=O)c1cn(CCCCc2ccc(NC(=O)Cc3cccc(C4CCOCC4)c3)nn2)nn1` [Example 217, N-methyl-1-(4-(6-(2-(3-(tetrahydro-2H-pyran-4-yl)phenyl)acetamido)pyridazin-3-yl)butyl)-1H-1,2,3-triazole-4-carboxamide] returned an EC50 of 100 to 500 nM. In addition, the IC50 in test [1] is less than 100 nM.
In the test on A549 cells (Homo sapiens, A549, 72 h), `O=C(Cc1cc(OC(F)(F)F)ccc1F)Nc1nnc(CCC(F)Cn2cc(C(=O)NCc3cccnc3)nn2)s1` (centres unmarked) [Example 218, 1-(2-fluoro-4-(5-(2-(2-fluoro-5-(trifluoromethoxy)phenyl)acetamido)-1,3,4-thiadiazol-2-yl)butyl)-N-(pyridin-3-ylmethyl)-1H-1,2,3-triazole-4-carboxamide] registered an EC50 of less than 100 nM. Further, in test [1], the IC50 is less than 100 nM.
Regarding `COc1ccc(CNC(=O)c2cn(CC(F)CCc3nnc(NC(=O)Cc4cc(OC(F)(F)F)ccc4F)s3)nn2)cn1` (centres unmarked) [Example 219, 1-(2-fluoro-4-(5-(2-(2-fluoro-5-(trifluoromethoxy)phenyl)acetamido)-1,3,4-thiadiazol-2-yl)butyl)-N-((6-methoxypyridin-3-yl)methyl)-1H-1,2,3-triazole-4-carboxamide], the EC50 in the test on A549 cells (Homo sapiens, A549, 72 h) is less than 100 nM. Further, the IC50 in test [1] is less than 100 nM.
`COc1ncccc1CNC(=O)c1cn(CC(F)CCc2nnc(NC(=O)Cc3cc(OC(F)(F)F)ccc3F)s2)nn1` (centres unmarked) [Example 223, 1-(2-fluoro-4-(5-(2-(2-fluoro-5-(trifluoromethoxy)phenyl)acetamido)-1,3,4-thiadiazol-2-yl)butyl)-N-((2-methoxypyridin-3-yl)methyl)-1H-1,2,3-triazole-4-carboxamide] registered an EC50 with A549 cells (Homo sapiens, A549, 72 h) of less than 100 nM. In test [1], the concentration for half-maximal inhibition (IC50) is less than 100 nM.
For the molecule `COC(=O)Nc1ccc(CCCCn2cc(C(=O)NCc3cc(C(F)(F)F)ccn3)nn2)nn1` [Example 224, methyl (6-(4-(4-(((4-(trifluoromethyl)pyridin-2-yl)methyl)carbamoyl)-1H-1,2,3-triazol-1-yl)butyl)pyridazin-3-yl)carbamate], the EC50 with A549 cells (Homo sapiens, A549, 72 h) fell in the range of 100 to 500 nM. In addition, the concentration for half-maximal inhibition (IC50) in test [1] lay in the range of 100 to 500 nM.
In the test on A549 cells (Homo sapiens, A549, 72 h), `CNC(=O)c1cn(CC(F)CCc2nnc(NC(=O)Cc3cc(C(F)(F)F)ccn3)s2)nn1` (centres unmarked) [Example 226, 1-(2-fluoro-4-(5-(2-(4-(trifluoromethyl)pyridin-2-yl)acetamido)-1,3,4-thiadiazol-2-yl)butyl)-N-methyl-1H-1,2,3-triazole-4-carboxamide] gave an EC50 of less than 100 nM. Also, in test [1], the IC50 is less than 100 nM.
`CNC(=O)c1cn(CCCCc2ccc(NC(=O)CN3CCN(c4cccc(OC(F)(F)F)c4)CC3=O)nn2)nn1` [Example 227, N-methyl-1-(4-(6-(2-(2-oxo-4-(3-(trifluoromethoxy)phenyl)piperazin-1-yl)acetamido)pyridazin-3-yl)butyl)-1H-1,2,3-triazole-4-carboxamide] registered an EC50 with A549 cells (Homo sapiens, A549, 72 h) of less than 100 nM. In addition, the IC50 in test [1] is less than 100 nM.
As to `CNC(=O)c1cn(CCCCc2ccc(NC(=O)CN3CCN(c4cccc(OC(F)(F)F)c4)CC3)nn2)nn1` [Example 228, N-methyl-1-(4-(6-(2-(4-(3-(trifluoromethoxy)phenyl)piperazin-1-yl)acetamido)pyridazin-3-yl)butyl)-1H-1,2,3-triazole-4-carboxamide], the EC50 in the test with A549 cells (Homo sapiens, A549, 72 h) was less than 100 nM. Besides, the concentration for half-maximal inhibition (IC50) in test [1] was less than 100 nM.
Regarding `CNC(=O)c1nnc(CCCCc2ccc(NC(=O)Cc3cc(C(F)(F)F)ccn3)nn2)s1` [Example 229, N-methyl-5-(4-(6-(2-(4-(trifluoromethyl)pyridin-2-yl)acetamido)pyridazin-3-yl)butyl)-1,3,4-thiadiazole-2-carboxamide], in the test with A549 cells (Homo sapiens, A549, 72 h), the EC50 was less than 100 nM. Moreover, the concentration for half-maximal inhibition (IC50) in test [1] was less than 100 nM.
In the test with A549 cells (Homo sapiens, A549, 72 h), `CNC(=O)c1cn(CCCCc2ccc(NC(=O)CN3CCN(c4ccc(OC(F)(F)F)cc4)CC3)nn2)nn1` [Example 232, N-methyl-1-(4-(6-(2-(4-(4-(trifluoromethoxy)phenyl)piperazin-1-yl)acetamido)pyridazin-3-yl)butyl)-1H-1,2,3-triazole-4-carboxamide] displayed an EC50 of less than 100 nM. For the same molecule, the IC50 in test [1] was less than 100 nM.
Molecule `O=C(NCc1ccccn1)c1cn(CC(F)CCc2nnc(C(=O)NCc3cc(C(F)(F)F)ccn3)s2)nn1` (centres unmarked) [Example 234, 5-(3-fluoro-4-(4-((pyridin-2-ylmethyl)carbamoyl)-1H-1,2,3-triazol-1-yl)butyl)-N-((4-(trifluoromethyl)pyridin-2-yl)methyl)-1,3,4-thiadiazole-2-carboxamide] displayed an EC50 in the test on A549 cells (Homo sapiens, A549, 72 h) of 100 to 500 nM. Also, the half-inhibitory concentration (IC50) in test [1] is less than 100 nM.
`O=C(NCc1cc(C(F)(F)F)ccn1)c1cn(CC(F)CCc2nnc(C(=O)NCc3ccccn3)s2)nn1` (centres unmarked) [Example 235, 5-(3-fluoro-4-(4-(((4-(trifluoromethyl)pyridin-2-yl)methyl)carbamoyl)-1H-1,2,3-triazol-1-yl)butyl)-N-(pyridin-2-ylmethyl)-1,3,4-thiadiazole-2-carboxamide]: in the test with A549 cells (Homo sapiens, A549, 72 h), the EC50 was 100 to 500 nM. Besides, in test [1], the IC50 is less than 100 nM.
Turning to `CC(=O)Nc1ccc(CCC(F)Cn2cc(C(=O)NCc3cc(C(F)(F)F)ccn3)nn2)nn1` (centres unmarked) [Example 236, 1-(4-(6-acetamidopyridazin-3-yl)-2-fluorobutyl)-N-((4-(trifluoromethyl)pyridin-2-yl)methyl)-1H-1,2,3-triazole-4-carboxamide], in the test on A549 cells (Homo sapiens, A549, 72 h), the EC50 is less than 100 nM. Moreover, in test [1], the IC50 was less than 100 nM.
`CNC(=O)c1cn(CCCCc2ccc(NC(=O)Cc3cccc(N(C)C)c3)nn2)nn1` [Example 237, 1-(4-(6-(2-(3-(dimethylamino)phenyl)acetamido)pyridazin-3-yl)butyl)-N-methyl-1H-1,2,3-triazole-4-carboxamide] returned an EC50 with A549 cells (Homo sapiens, A549, 72 h) of 100 to 500 nM. In addition, in test [1], the IC50 was less than 100 nM.
The corresponding values for `O=C(Cc1ccccn1)Nc1nnc(CC[C@H](F)Cn2cc(C(=O)NCc3cc(C(F)(F)F)ccn3)nn2)s1` [Example 238, (S)-1-(2-fluoro-4-(5-(2-(pyridin-2-yl)acetamido)-1,3,4-thiadiazol-2-yl)butyl)-N-((4-(trifluoromethyl)pyridin-2-yl)methyl)-1H-1,2,3-triazole-4-carboxamide] are 100 to 500 nM and less than 100 nM.
In the test on A549 cells, `CNC(=O)c1cn(C[C@@H](F)CCc2nnc(NC(=O)Cc3cccc(OC(F)(F)F)c3)s2)nn1` [Example 239, (S)-1-(2-fluoro-4-(5-(2-(3-(trifluoromethoxy)phenyl)acetamido)-1,3,4-thiadiazol-2-yl)butyl)-N-methyl-1H-1,2,3-triazole-4-carboxamide] yielded an EC50 of 100 to 500 nM. For the same molecule, in test [1], the half-inhibitory concentration (IC50) was less than 100 nM.
In the test on A549 cells (Homo sapiens, A549, 72 h), `CNC(=O)c1cn(C[C@H](F)CCc2nnc(NC(=O)Cc3cccc(OC(F)(F)F)c3)s2)nn1` [Example 240, (R)-1-(2-fluoro-4-(5-(2-(3-(trifluoromethoxy)phenyl)acetamido)-1,3,4-thiadiazol-2-yl)butyl)-N-methyl-1H-1,2,3-triazole-4-carboxamide] yielded an EC50 of less than 100 nM. For the same molecule, in test [1], the IC50 was less than 100 nM.
On to `CNC(=O)c1cn(CC(F)CCc2ccc(NC(=O)CN3CCN(c4cccc(OC(F)(F)F)c4)CC3=O)nn2)nn1` (centres unmarked) [Example 241, 1-(2-fluoro-4-(6-(2-(2-oxo-4-(3-(trifluoromethoxy)phenyl)piperazin-1-yl)acetamido)pyridazin-3-yl)butyl)-N-methyl-1H-1,2,3-triazole-4-carboxamide], for which, in the test with A549 cells (Homo sapiens, A549, 72 h), the EC50 was less than 100 nM. Besides, the IC50 in test [1] is less than 100 nM.
`CNC(=O)c1cn(CCCCc2ccc(NC(=O)OC3CCCCC3)nn2)nn1` [Example 243, cyclohexyl (6-(4-(4-(methylcarbamoyl)-1H-1,2,3-triazol-1-yl)butyl)pyridazin-3-yl)carbamate] gave an EC50 in the test with A549 cells (Homo sapiens) of 100 to 500 nM. Also, in test [1], the concentration for half-maximal inhibition (IC50) was in the range of 100 to 500 nM.
With `CNC(=O)c1cn(CC(F)CCc2ccc(NC(=O)Cc3ccccc3)nn2)nn1` (centres unmarked) [Example 244, 1-(2-fluoro-4-(6-(2-phenylacetamido)pyridazin-3-yl)butyl)-N-methyl-1H-1,2,3-triazole-4-carboxamide], the EC50 in the test with A549 cells (Homo sapiens, A549, 72 h) is less than 100 nM. For the same molecule, the 50% inhibitory concentration (IC50) in test [1] is less than 100 nM.
